Assay results as given in patent publication EP0871441B1, “DFMO AND TAXOL FOR THE TREATMENT OR PREVENTION OF BREAST CANCER” (Ilex Oncology, Inc., priority 1996, dated 1998).
Several values for one entry are separate records, joined by “and”; a condition that tells them apart may be missing. Equal entries are not always repeated.

How the values were obtained:
MCF-7 human breast tumor = assay: Tumor growth inhibition of MCF-7 mammary carcinoma implanted s.c. in ovariectomized nude mice; format: in vivo
Experimental: Female ovariectomized nude mice are implanted s.c. by trocar with 21 day release 0.25 mg estrogen pellets. The following day the mice are implanted s.c. by trocar fragments of MCF-7 mammary carcinomas harvested from s.c. growing MCF-7 tumors in nude mice hosts. When tumors are approximately 5 mm x 5 mm in size (about twenty days after inoculation), the animals are pair-matched into treatment and control groups, and the estrogen pellets removed. Each group contains 10 tumored mice, each of which is ear-tagged and followed individually throughout the experiment. The administration of drugs or vehicle begins the day the animals are pair-matched (Day 1). The doses, route of drug administration and schedule are selected as appropriate for the study in question. If the MTD dose of an agent is not known, it is determined in an initial dosing experiment in non-tumored mice. Mice are weighed twice weekly, and tumor measurements are taken by calipers twice weekly, starting on Day 1. These tumor measurements are converted to mg tumor weight by a well-known formula, L^2xW/2. The experiment is terminated when control tumors reach a size of 1 gram. […] Tumors are weighed and the mean tumor weight per group is calculated. […] A mean % tumor shrinkage can be calculated from data from the mice in a group that experienced tumor regressions. […]

[1] = test system: MDA-MB-231 human breast tumor; assay: Tumor growth inhibition of MDA-MB-231 breast tumor implanted s.c. in nude mice; format: in vivo; conditions: for % Tumor Growth Inhibition: with respect to control
Experimental: The MDA-MB-23 1 human breast tumor cell line is estrogen independent. The cell line cannot be maintained in vitro and so was maintained in vivo in host nude mice. The tumor growth inhibition studies were conducted by transplanting MDA-MB-231 tumor cells from the host nude mouse to the subject and control nude mice of the study. The MDA-MB-231 cell line can be obtained from the American Type Culture Collection as ATCC HTB 26. Nude mice are implanted s.c. by trocar with fragments of MDA-MB-231 human breast tumor cells harvested from s.c. growing tumors in nude mice hosts. When tumors are approximately 5 mm x 5 mm in size (usually about ten to twenty days after inoculation), the animals are pair-matched into treatment and control groups. Each group contains 10 tumored mice, each of which is ear-tagged and followed individually throughout the experiment. The administration of drugs or vehicle begins the day the animals are pair-matched (Day 1). The doses, route of drug administration and schedule are selected as appropriate for the study in question. If the MTD dose of an agent is not known, it is determined in an initial dosing experiment in non-tumored mice. The experiment is usually terminated when control tumors reach a size of 1 g or 2 g for the tumor models. Mice are weighed twice weekly, and tumor measurements are taken by calipers twice weekly, starting on day 1. These tumor measurements are converted to mg tumor weight by a well-known formula, and from these calculated tumor weights, the termination date can be determined. Upon termination, all mice are weighed, sacrificed, and their tumors excised. Tumors are weighed, and the mean tumor weight per group is calculated. In this model, the mean treated tumor weight/mean control tumor weight x 100% (T/C) is subtracted from 100% to give the tumor growth inhibition (TGI) for each group. The final weight of a given tumor is subtracted from its own weight at the start of treatment on day 1. This difference divided by the initial tumor weight is the % shrinkage. A mean % tumor shrinkage can be calculated from data from the mice in a group that experienced regressions. If the tumor completely disappears in a mouse, this is considered a complete regression or complete tumor shrinkage. If desired, mice with partial or total tumor regressions can be kept alive past the termination date to see whether they live to become long term, tumor-free survivors. Statistics are performed on the data using primarily the log rank-value test. In the above procedure, a reduction in the growth, number, size, metastasis and/or reoccurrence of tumor in the animal is deemed a positive response.

MCF-7 cells = conditions: cited from earlier work
BT-20 = conditions: BT-20, estrogen-unresponsive; cited from earlier work
T-47D = conditions: estrogen-responsive; cited from earlier work
ODC = molecular target: T1, ODC (Homo sapiens, UniProt P11926); conditions: DFMO 5 mM, MCF-7 cells; cited from earlier work
T1 construct: endogenous in cells; host or cells: MCF-7 cells, estrogen-treated
T1 sequence (P11926 1-461): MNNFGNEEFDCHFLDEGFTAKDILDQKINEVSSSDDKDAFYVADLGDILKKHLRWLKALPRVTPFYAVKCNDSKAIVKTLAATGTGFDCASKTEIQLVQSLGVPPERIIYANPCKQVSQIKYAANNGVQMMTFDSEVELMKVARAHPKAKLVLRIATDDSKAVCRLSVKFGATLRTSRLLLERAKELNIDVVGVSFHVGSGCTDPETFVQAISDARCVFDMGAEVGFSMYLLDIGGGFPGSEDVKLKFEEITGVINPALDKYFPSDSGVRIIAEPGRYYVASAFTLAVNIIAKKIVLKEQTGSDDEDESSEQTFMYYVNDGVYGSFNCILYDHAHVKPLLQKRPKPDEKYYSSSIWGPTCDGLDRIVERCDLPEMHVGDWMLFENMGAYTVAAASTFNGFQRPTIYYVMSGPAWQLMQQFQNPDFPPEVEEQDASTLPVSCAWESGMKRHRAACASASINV

MCF-7 = conditions: MCF-7, estrogen-responsive; cited from earlier work
[2] = taxol alone 20 mg/kg, i.p., qdx5
[3] = DFMO alone 0.5% in drinking water, p.o., ad libitum
[4] = DFMO alone 3% in drinking water, p.o., ad libitum

Compound: CC(=O)O[C@H]1C(=O)[C@@]2(C)[C@H]([C@H](OC(=O)c3ccccc3)[C@]3(O)C[C@H](OC(=O)[C@H](O)[C@@H](NC(=O)c4ccccc4)c4ccccc4)C(C)=C1C3(C)C)[C@]1(OC(C)=O)CO[C@@H]1C[C@@H]2O [Taxol]
- tumor growth inhibition (TGI) with respect to control (MCF-7 human breast tumor; taxol alone 16 mg/kg, i.p., qdx5): 28%
- Final Tumor Wt. (Mean±SEM) [1, 2]: 301.6±72.9
- % Tumor Growth Inhibition [1, 2]: 83.7%
- % Tumor Growth Inhibition ([1]; taxol alone 20 mg/kg, i.p., qdx5, listed as taxol): 84%

Compound: 4-hydroxytamoxifen
- cell growth reduced to (MCF-7 cells; 0.1µM 4-hydroxytamoxifen, remaining growth): 72%

Compound: NCCC[C@](N)(C(=O)O)C(F)F (racemic) [DFMO, alpha-difluoromethylornithine]
- tumor growth inhibition (TGI) with respect to control (MCF-7 human breast tumor; DFMO alone 0.5% wt in drinking water, p.o., ad libitum): 44%
- inhibition of proliferation (BT-20): 50%
- Final Tumor Wt. (Mean±SEM) [1, 3]: 1276.3±398.6
- % Tumor Growth Inhibition [1, 3]: 19% and 19.2%
- Final Tumor Wt. (Mean±SEM) [1, 4]: 782.7±111.4
- % Tumor Growth Inhibition [1, 4]: 52% and 51.8%
- inhibition of proliferation (T-47D): 80%
- ODC activity (ODC): fully inhibited
- inhibition of proliferation (MCF-7): 80%
- proliferation of MCF-7 cells, % of the controls (MCF-7 cells; 0.1 mM DFMO, remaining proliferation): 75%
